Drawing on patent publication US8546383B2, “Chiral fused [1,2]imidazo[4,5-c] ring compounds” (3M Innovative Properties Company, priority 2004, dated 2013), this text covers melting point for ten compounds.

Molecules are shown by their SMILES.

One may read the melting point as the temperature of the solid-liquid transition. In turn, `C[C@H]1COCc2nc3c(N)nc4cc(CCC(=O)N5CCOCC5)ccc4c3n21` [Example 63, (11S)-11-Methyl-3-(3-morpholin-4-yl-3-oxopropyl)-10,11-dihydro-8H-[1,4]oxazino[4′,3′:1,2]imidazo[4,5-c]quinolin-6-amine] registered a melting point of 245 to 247 °C.
For `C[C@@H]1COCc2nc3c(N)nc4c(c3n21)CCCC4` [Example 27], the melting point lay in the range of 209 to 211 °C.
The value for `C[C@H](OCc1ccccc1)[C@H]1COCc2nc3c(N)nc4ccccc4c3n21` [Example 40, (11R)-11-[(1S)-1-(benzyloxy)ethyl]-10,11-dihydro-8H-[1,4]oxazino[4′,3′:1,2]imidazo[4,5-c]quinolin-6-amine] was 86.6 to 89.7 °C; that for `Nc1nc2ccccc2c2c1nc1n2[C@@H](CCl)COC1` [Example 36, (11R)-11-(Chloromethyl)-10,11-dihydro-8H-[1,4]oxazino[4′,3′:1,2]imidazo[4,5-c]quinolin-6-amine] was 230 to 232 °C.
The value for `C[C@@H](O)[C@H]1COCc2nc3c(N)nc4ccccc4c3n21` [Example 39, (1R)-1-[(11R)-6-Amino-10,11-dihydro-8H-[1,4]oxazino[4′,3′:1,2]imidazo[4,5-c]quinolin-11-yl]ethanol] was 215.3 to 218.6 °C.
`C[C@H]1COCc2nc3c(N)nc4ccc(OCC(=O)N5CCOCC5)cc4c3n21` [Example 55, (11S)-11-Methyl-2-(2-morpholin-4-yl-2-oxoethoxy)-10,11-dihydro-8H-[1,4]oxazino[4′,3′:1,2]imidazo[4,5-c]quinolin-6-amine]: the melting point fell in the range of 226 to 228 °C.
The compound `CC(C)[C@H]1COCc2nc3c(N)nc4cc(OCc5ccccc5)ccc4c3n21` [Example 3, (11S)-3-(Benzyloxy)-11-isopropyl-10,11-dihydro-8H-[1,4]oxazino[4′,3′:1,2]imidazo[4,5-c]quinolin-6-amine] had a melting point of 227 to 229 °C.
With `Nc1nc2ccccc2c2c1nc1n2[C@@H](c2cc(-c3ccc(F)cc3)no2)COC1` [Example 50, (11R)-11-[3-(4-Fluorophenyl)isoxazol-5-yl]-10,11-dihydro-8H-[1,4]oxazino[4′,3′:1,2]imidazo[4,5-c]quinolin-6-amine] the figure was 261 to 262 °C; with `C[C@H]1COCc2nc3c(N)nc4ccc(OC(=O)N5CCCC5)cc4c3n21` [Example 53, (11S)-6-Amino-11-methyl-10,11-dihydro-8H-[1,4]oxazino[4′,3′:1,2]imidazo[4,5-c]quinolin-2-ylpyrrolidine-1-carboxylate], 218 to 219 °C; with `C[C@H]1COCc2nc3c(N)nc4cc(CCS(C)(=O)=O)ccc4c3n21` [Example 61, (11S)-11-Methyl-3-[2-(methylsulfonyl)ethyl]-10,11-dihydro-8H-[1,4]oxazino[4′,3′:1,2]imidazo[4,5-c]quinolin-6-amine], 205 to 206 °C.
